Experimental data taken from article PMC9061999, “Application of the Adverse Outcome Pathway Concept to In Vitro Nephrotoxicity Assessment: Kidney Injury due to Receptor-Mediated Endocytosis and Lysosomal Overload as a Case Study” (Frontiers in Toxicology, 2022).
Where two headings read alike, the source gives them in different places.

Experiments:
RPTEC/TERT1 cells [1] = test: CellTiter-Glo cytotoxicity assay (KE3); assay type: cell-based, human; conditions: for BMC10, KE3: in vitro POD from KE dose-response, cell viability CellTiter-Glo, RPTEC/TERT1, 24 h treatment, n = 3; for MOE, KE3: margin of exposure: BMC10 in RPTEC/TERT1 vs human plasma/serum concentration (cmax or css)
Protocol: Cells were plated into 96-well tissue culture plates (10,000 cells per well) and were allowed to grow for 48 h (NRK-52E) respectively 10 d (RPTEC/TERT1) prior to 24 h treatment with model stressors. Stock solution for each compound (2000 µM) was prepared in growth medium and serial dilutions (1:1) were made before each experiment. At the end of the 24 h treatment, cell viability was measured using the CellTiter-Glo® assay (Promega). CellTiter-Glo® reagents and buffer were mixed under light-protected conditions and 100 µL CellTiter-Glo® solution was added directly to each well followed by 2 min incubation on an orbital shaker and 10 min incubation at room temperature in the dark to stabilize the luminescence signal. The suspension was mixed via pipetting and 50 µL were transferred into white 96-well plates (PerkinElmer Inc.). The luminescence signal was measured on a multiplate reader (Mithras LB 940; Berthold). Each assay was performed in three independent experiments carried out in triplicates.

NRK-52E cells = test: Cathepsin D immunofluorescence (KE2, disruption of lysosomes); assay type: cell-based, rat; conditions: for MOE, lowest across KEs: in vitro PODs in NRK-52E vs rat plasma concentrations after human equivalent or nephrotoxic doses
Protocol: (§1) For immunocytochemistry experiments, cells were seeded into 8-well chamber slides (Ibidi) at a density of 140 cells per µL in 300 µL growth medium and were allowed to grow for 48 h (NRK-52E) or 10 d (RPTEC/TERT1) respectively. For treatment, stock solutions (1,000 µM) of compounds dissolved in growth medium were freshly prepared and serial dilutions were made before exposure of cells for 24 h. After treatment, cells were washed twice with 150 µL PBS and fixed with 150 µL 4% paraformaldehyde in 1 x PBS for 10 min at room temperature. After fixation, cells were washed 10 min with 150 µL PBS on an orbital shaker followed by permeabilization with 150 µL 0.2% Triton X-100 in 1 x PBS for 5 min at room temperature on an orbital shaker. The permeabilized cells were washed twice with 1 x PBS (150 µL) for 10 min at room temperature on an orbital shaker and then incubated with 150 µL 5% BSA dissolved in 1 x PBS for 1 h at room temperature to block unspecific binding sites. After blocking, 100 µL primary antibody diluted 1:100 in 1% BSA in 1 x PBS were directly pipetted onto the cells and incubated overnight at 4°C. The following antibodies were employed for NRK-52E cells: Anti-LAMP-1 monoclonal IgG1 kappa mouse antibody (Santa Cruz; sc-20011), anti-Cathepsin D mouse monoclonal IgG2 kappa antibody (Santa Cruz; sc-377124); for RPTEC/TERT1 cells: Anti-LAMP-2 monoclonal mouse antibody (Santa Cruz; sc-18822), anti-Cathepsin D mouse monoclonal IgG2b kappa (Novus Biologicals; NBP1-04278); for both cell lines anti-megalin mouse monoclonal IgG1 antibody (Santa Cruz, sc-515772).
After incubation with primary antibody, cells were washed three times for 15 min with 0.2% Tween in 1 x PBS (150 µL) on an orbital shaker. Cells were incubated for 1 h at room temperature with 100 µL CFL 488-conjugated mouse IgG kappa binding protein (1:50) (m-IgGκ BP-CFL 488; Santa Cruz, sc-516176). After incubation the cells were washed three times for 15 min with 0.2% Tween in 1 x PBS on an orbital shaker and once with 150 µL sterile water. […] To preserve fluorescence 50–100 µL DAPI mounting medium (Vectashield®; Vectorlab, Biozol) was added to the cells and chamber slides were stored at 4°C in the dark until image acquisition.
Images were taken with a TCS SP5 II confocal microscope with an HCX PL APO lambda blue 63.0 × 1.40 OIL UV objective (Leica Microsystems, Wetzlar, GER) (n = 10 cells/treatment group). […] Before quantification, images were blinded and randomized. Quantification of fluorescence intensity was performed using NIH Image® software. […] The mean values of the pixel intensities were automatically calculated by the software and imported in Excel for further processing.

[2] = cited from earlier work
From the text: Plasma/Serum Treatment KE BMC10 [µM] Concentration MOE [µM] RPTEC/TERT1 / Human KE1 4.2 1.0 - 7.4 Polymyxin B KE2 6.8 1.7 - 11.9 0.57 – 4.1 (1,2 ...

RPTEC/TERT1 cells [3] = test: LAMP-2 immunofluorescence (KE1, disturbance of lysosomal function); assay type: cell-based, human; conditions: for BMC10, KE1: in vitro POD from KE dose-response, LAMP-2 intensity, RPTEC/TERT1, 24 h treatment, n = 3 independent experiments; for MOE, lowest across KEs: in vitro PODs in RPTEC/TERT1 vs human plasma concentrations at therapeutic doses; for MOE, KE1: margin of exposure: BMC10 in RPTEC/TERT1 vs human plasma/serum concentration (cmax or css)
Protocol: as §1
After incubation with primary antibody, cells were washed three times for 15 min with 0.2% Tween in 1 x PBS (150 µL) on an orbital shaker. Cells were incubated for 1 h at room temperature with 100 µL CFL 488-conjugated mouse IgG kappa binding protein (1:50) (m-IgGκ BP-CFL 488; Santa Cruz, sc-516176). After incubation the cells were washed three times for 15 min with 0.2% Tween in 1 x PBS on an orbital shaker and once with 150 µL sterile water. Phalloidin-tetramethylrhodamine B isothiocyanate (TRITC) was used to stain the cytoskeleton and was diluted in 100% methanol to a stock concentration of 0.1 mg/ml and further diluted in 1 x PBS to a working concentration of 0.095 µM. After cells were washed once with 1 x PBS for 10 min at room temperature 150 µL phalloidin-TRITC working solution was added and the cells were incubated on an orbital shaker at room temperature for 60–90 min. After incubation, phalloidin-TRITC solution was aspirated, and the cells were washed once with 1 x PBS. Chamber slides were allowed to dry for 15 min at room temperature. To preserve fluorescence 50–100 µL DAPI mounting medium (Vectashield®; Vectorlab, Biozol) was added to the cells and chamber slides were stored at 4°C in the dark until image acquisition.
Images were taken with a TCS SP5 II confocal microscope with an HCX PL APO lambda blue 63.0 × 1.40 OIL UV objective (Leica Microsystems, Wetzlar, GER) (n = 10 cells/treatment group). The maximum excitation and emission settings for image acquisition were the following: Vectashield® antifade mounting medium with DAPI (λex 360 nm & λem 460 nm), for CFL 488-conjugated mouse IgG kappa binding protein (λex 490 nm & λem 525 nm) and phalloidin-TRITC (λex 545 nm & λem 573 nm). Before quantification, images were blinded and randomized. Quantification of fluorescence intensity was performed using NIH Image® software. Using the tool “Plot Profile” we generated a two-dimensional graph of the intensity of pixels along a reference line (6.35 µm) drawn across the cytoplasm of cells. The mean values of the pixel intensities were automatically calculated by the software and imported in Excel for further processing.

Colistin
BMC10, KE3 (RPTEC/TERT1 cells [1]): 23.5 µM
MOE, KE3 (RPTEC/TERT1 cells [1]): 2.9 – 56.0
MOE, lowest across KEs (NRK-52E cells): 1.8
Plasma/Serum Concentration ([2]; human, cmax or css at therapeutic or known nephrotoxic doses, ref 3,4 (Tran et al., 2016; Sorli et al., 2017)): 0.42 to 8.1 µM
BMC10, KE1 (RPTEC/TERT1 cells [3]): 4.3 µM
MOE, lowest across KEs (RPTEC/TERT1 cells [3]): 0.5
MOE, KE1 (RPTEC/TERT1 cells [3]): 0.5 – 10.2

Polymyxin B
BMC10, KE3 (RPTEC/TERT1 cells [1]): 14.2 µM
MOE, KE3 (RPTEC/TERT1 cells [1]): 3.5 – 24.9
BMC10, KE2 (NRK-52E cells; in vitro POD from KE dose-response, cathepsin D intensity, NRK-52E, 24 h treatment, n = 3): 5.8 µM
MOE, lowest across KEs (NRK-52E cells): 0.8
MOE, KE2 (NRK-52E cells; margin of exposure: BMC10 in NRK-52E vs rat plasma/serum concentration (cmax or css)): 0.8
Plasma/Serum Concentration ([2]; human, cmax or css at therapeutic or known nephrotoxic doses, ref 1,2 (Sandri et al., 2013; Manchandani et al., 2016)): 0.57 to 4.1 µM
Plasma/Serum Concentration ([2]; rat, cmax or css at human equivalent or nephrotoxic doses, ref 5 (Nilsson et al., 2015)): 7.0 to 7.1 µM
BMC10, KE1 (RPTEC/TERT1 cells [3]): 4.2 µM
MOE, lowest across KEs (RPTEC/TERT1 cells [3]): 1
MOE, KE1 (RPTEC/TERT1 cells [3]): 1.0 - 7.4
